“Also recorded” adds a separate entry of the source.
Key:
enteric nerve cells = assay: Peristalsis model using luminally perfused mouse colon (Example 35); details: colon muscle perfused at 1, 0.5 and 0.1 mg/mL for 15 minutes; for stimulation of enteric nerve cells: without involving gut microbiota and/or their metabolites
Procedure: In this Example, the effect of 2′-fucosyllactose (2′FL) or 3′ fucosyllactose (3′FL) on stimulating enteric nerve cells in the gastrointestinal tract of rodents is analyzed.
Specifically, a peristalsis model using luminally perfused mouse colon is used to test the stimulation effect of 2′FL or 3′FL on enteric nerve cells. Colon muscle is perfused with 2′FL or 3′FL, at concentrations of 1 mg/mL, 0.5 mg/mL, and 0.1 mg/mL, for 15 minutes. The frequency and amplitude of contractions of the muscle is analyzed.

[1] = test system: infant fecal inoculum (diluted feces); assay: In vitro fermentation model simulating large bowel fermentation with infant fecal inoculum (Example 36); assay type: cell-based, human infant; details: for pH change from baseline: at 3, 6, and 12 h after inoculation, comparison among substrates (P<0.0001)
[2] = test system: Bifidobacterium spp. (12 bifidobacteria strains); assay: Bacterial growth assay (OD600), all bifidobacteria strains tested (Example 37); assay type: cell-based; details: for growth / ability to ferment the carbohydrate (OD600): carbohydrate at 1% final concentration in sMRS+cysteine, all bifidobacteria tested
Procedure: (§1) All bifidobacteria strains are initially inoculated from frozen stocks, grown in deMan Rogosa Sharpe (MRS) broth (Difco, Detroit, Mich.) supplemented with 0.5 g/L L-cysteine and incubated at 37° C. for 24 h in an anaerobic chamber (90% N2, 5% CO2 and 5% H2). Subsequently, the cultures are passed twice on a semi-synthetic MRS medium (sMRS)+0.5 g/L L-cysteine which is supplemented with 1% (w/v) filter-sterilized glucose as the sole carbohydrate source. After the 2nd pass, cultures are prepared to use as inoculums for growth assays described below. For bifidobacteria strains, the same procedure is followed except all media are supplemented with 0.5 g/l L-cysteine/HCl.
(§2) After the 2nd pass in sMRS+glucose+cysteine, the cultures are washed once with 10 mL of sterile sMRS+cysteine (no carbohydrate), resuspended in 10 ml of sterile sMRS+cysteine (no carbohydrate) and then used as a 1% inoculum. The carbohydrates are sterilized with a 0.22 micron filter and used at a 1% final concentration. Cell growth is performed in 250 μL of sMRS+cysteine covered with 50 μL of mineral oil in a Bioscreen 100-well Honeycomb plate. Cell growth is monitored by measuring optical density at 600 nm (OD600) using a Bioscreen C Automated Microbiology Growth Curve Analysis System. The plate reader is operated in discontinuous mode, with absorbance readings performed in 30-minute intervals, and preceded by 30-second shaking intervals at maximum speed. Controls consist of inoculated medium lacking carbohydrate. Due to space limitations on the microtitre plate, the carbohydrates are divided into three separate groups: plate A (HMO precursors: glucose, galactose, lactose, NAG, fucose, fructose and sialic acid), plate B (Prebiotics: glucose, Purimune™ GOS, purified Purimune™ GOS, Vivinal® GOS, purified Vivinal® GOS, scFOS and PDX), and plate C (HMOs: glucose, 6′-SL, 3′-SL, 2′-FL, 3′-FL and LNnT). All three plates include a positive control (glucose) and negative control (no carbohydrate).
(§3) The OD600 data for each carbohydrate is corrected by subtracting the OD600 of the basal media (sMRS) from the sample plate for each probiotic. Maximum OD is determined by inspection of the corrected growth data. OD is determined by subtracting the initial corrected OD (time point 0) from the maximum corrected OD. Samples are grown in biologically independent triplicates and the resulting growth kinetic data are expressed as the mean of these replicates.
(§4) For the growth curve plots, OD600 vs. time is first plotted for the bacteria grown on medium lacking carbohydrate (sMRS). For all other carbohydrates, the OD600 data is corrected by subtracting the OD600 of sMRS.

B. infantis ATCC 15697 = assay: Bacterial growth assay (OD600), B. infantis ATCC 15697; assay type: cell-based, Bifidobacterium infantis; details: 1% carbohydrate in sMRS+cysteine
Procedure: as §1, §2, §3, §4

B. infantis M-63 = assay: Bacterial growth assay (OD600), B. infantis M-63; assay type: cell-based, Bifidobacterium infantis; details: 1% carbohydrate in sMRS+cysteine
Procedure: as §1, §2, §3, §4

B. breve ATCC 15700 = assay: Bacterial growth assay (OD600), B. breve ATCC 15700; assay type: cell-based, Bifidobacterium breve; details: 1% carbohydrate in sMRS+cysteine
Procedure: as §1
After the 2nd pass in sMRS+glucose+cysteine, the cultures are washed once with 10 mL of sterile sMRS+cysteine (no carbohydrate), resuspended in 10 ml of sterile sMRS+cysteine (no carbohydrate) and then used as a 1% inoculum. The carbohydrates are sterilized with a 0.22 micron filter and used at a 1% final concentration. […] Cell growth is monitored by measuring optical density at 600 nm (OD600) using a Bioscreen C Automated Microbiology Growth Curve Analysis System. The plate reader is operated in discontinuous mode, with absorbance readings performed in 30-minute intervals, and preceded by 30-second shaking intervals at maximum speed. […]

| Compound | fermentation rate [1] | growth / ability to ferment the carbohydrate (OD600) [2] | growth / ability to ferment the carbohydrate (OD600) (B. infantis ATCC 15697) | growth / ability to ferment the carbohydrate (OD600) (B. infantis M-63) | fermentation rate class (rapidly-, medium-, slowly-fermented oligosaccharide) [1] | other results |
| --- | --- | --- | --- | --- | --- | --- |
| 2′-fucosyllactose [2′FL] | about 4,872 μg/g of dry matter/hour | only B. infantis ATCC 15697 and B. infantis M-63 are able to ferment | able to ferment | able to ferment | – | amplitude of contraction (enteric nerve cells): reduced consistently and in a dose response fashion; frequency of contraction (enteric nerve cells): reduced consistently and in a dose response fashion; stimulation of enteric nerve cells (enteric nerve cells): direct stimulation of nerve cells; stimulation of enteric nerve cells (enteric nerve cells; listed as 2′-fucosyllactose): stimulates enteric nerve cells; pH change from baseline [1]: greatest |
| 3′-fucosyllactose [3′FL] | – | only B. infantis ATCC 15697 and B. infantis M-63 are able to ferment | able to ferment | able to ferment | Medium-fermented | amplitude of contraction (enteric nerve cells): reduced consistently and in a dose response fashion; effectiveness on gut motility, 3′FL compared with 2′FL (enteric nerve cells): more effective than 2′FL; frequency of contraction (enteric nerve cells): reduced consistently and in a dose response fashion; stimulation of enteric nerve cells (enteric nerve cells): direct stimulation of nerve cells |
| CC(=O)N[C@H]1[C@H](O[C@H]2[C@@H](O)[C@@H](CO)O[C@@H](O[C@H]3[C@H](O)[C@@H](O)C(O)O[C@@H]3CO)[C@@H]2O)O[C@H](CO)[C@@H](O[C@@H]2O[C@H](CO)[C@H](O)[C@H](O)[C@H]2O)[C@@H]1O (mixture of isomers) [LNnT, Lacto-N-Neotetraose] | about 4,488 μg/g of dry matter/hour | – | grow well; also recorded: able to ferment | grow well; also recorded: able to ferment | – | pH change from baseline [1]: greatest; growth / ability to ferment the carbohydrate (OD600) (B. breve ATCC 15700): grow well; also recorded: able to ferment |
| CC(=O)N[C@H]1[C@H]([C@H](O)[C@H](O)CO)O[C@@](O[C@H]2[C@@H](O)[C@@H](CO)O[C@@H](O[C@H]3[C@H](O)[C@@H](O)C(O)O[C@@H]3CO)[C@@H]2O)(C(=O)O)C[C@@H]1O (stereo partly shown) [3′SL, 3′-sialyllactose] | – | only B. infantis ATCC 15697 and B. infantis M-63 are able to ferment | able to ferment | able to ferment | Medium-fermented | – |
| CC(=O)N[C@H]1[C@H]([C@H](O)[C@H](O)CO)O[C@@](OC[C@H]2O[C@@H](O[C@H]3[C@H](O)[C@@H](O)[C@H](O)O[C@@H]3CO)[C@H](O)[C@@H](O)[C@H]2O)(C(=O)O)C[C@@H]1O [6′SL, 6′-sialyllactose] | about 1,809 μg/g of dry matter/hour | only B. infantis ATCC 15697 and B. infantis M-63 are able to ferment | able to ferment | able to ferment | Medium-fermented | total SCFA production ([1]; 12 h of fermentation): greater (P<0.05) for the 6′SL and GOS substrates compared to 2′FL; total SCFA production ([1]; after 3 and 6 h of fermentation): lower (P<0.05) with 6′SL compared to GOS |
| C[C@H](O)[C@@H](O)[C@@H](O)[C@H](O)C=O [L-fucose, L-(−) Fucose] | – | None of the bifidobacteria are able to ferment | not able to ferment | not able to ferment | – | – |
| CC(=O)N[C@H]1C(O)O[C@H](CO)[C@@H](O)[C@@H]1O (stereo partly drawn) [NAG, N-acetyl-D-glucosamine] | – | Only B. breve ATCC 15700 is able to ferment | – | – | – | growth / ability to ferment the carbohydrate (OD600) (B. breve ATCC 15700): able to ferment |
| O=C(CO)[C@@H](O)[C@H](O)[C@H](O)CO [fructose, D-Fructose] | – | majority of bifidobacteria is able to ferment | – | – | – | – |
| OC[C@H]1O[C@@H](O[C@H]2[C@H](O)[C@@H](O)[C@@H](O)O[C@@H]2CO)[C@H](O)[C@@H](O)[C@H]1O [lactose, α-Lactose] | – | – | – | – | – | growth on the carbohydrate (OD600) ([2]; 1% carbohydrate, bifidobacteria which are not able to ferment galactose): reduced growth |
| CC(=O)N[C@H]1[C@H]([C@H](O)[C@H](O)CO)OC(O)(C(=O)O)C[C@@H]1O (stereo partly shown) [sialic acid, N-acetylneuraminic acid] | – | None of the bifidobacteria are able to ferment | not able to ferment | not able to ferment | – | – |

From US20120171166A1, “SYNBIOTIC COMBINATION OF PROBIOTIC AND HUMAN MILK OLIGOSACCHARIDES TO PROMOTE GROWTH OF BENEFICIAL MICROBIOTA” (ABBOTT LABORATORIES, priority 2010, published 2012)
